Measured values as given in patent publication US7842711B2, “Indazolecarboxamide derivatives for the treatment and prevention of malaria” (Sanofi-Aventis, priority 2004, dated 2010).
Structures can show the parent of a compound that is named as a salt. Where two headings read alike, the source gives them in different places.

Key:
[1] = test system: P. falciparum strain FcM29 (highly resistant to chloroquine); test: antimalarial activity assay, radioactive micromethod of Desjardins (tritiated hypoxanthine incorporation), strain FcM29; format: cell-based; conditions: Plasmodium falciparum, Erythrocyte, read-out: IC50 (concentration of the compound required to inhibit the parasite growth by 50%)
Experimental: Two strains of P. falciparum are used, the origin of which is Colombia (FcB1, strain moderately resistant to chloroquine) and Cameroon (FcM29, strain highly resistant to chloroquine). These strains of P. falciparum are cultured continuously in human red blood cells according to the method of Trager and Jensen (W. Trager, J. Jensen, Science, 1976, 193, 673-675): the parasites are maintained in human red blood cells (O±), diluted to 2% parasiteamia in an RPMI 1640 medium supplemented with 25 mM of Hepes, 24 mM of NaHCO3 and 2 mM of L-glutamine, and supplemented with 5% of human serum of all groups. The parasites are incubated at 37° C. in a humid atmosphere and at 5% CO2.
The antimalarial activity assays are carried out according to the radioactive micromethod of Desjardins (R. E. Desjardins, C. J. Canfield, J. D. Haynes, J. D. Chulay, Antimicrob. Agents Chemother., 1979, 16, 710-718). Each molecule is tested in triplicate. The assays are carried out in 96-well microplates. The strains of P. falciparum are cultured in solutions of RPMI 1640 supplemented with 5% of human serum with a 2% haematocrit and a 1.5% parasitaemia. For each assay, the parasites are incubated with decreasing concentrations of compounds of formula (I) for 48 h at 37° C. in a humid atmosphere and at 5% CO2.
The first dilution of the test compound is prepared at 1 mg/ml in dimethyl sulphoxide. The dilution range for the successive daughter solutions is also prepared in dimethyl sulphoxide. Each daughter dilution is subsequently diluted to 1/50 in RPMI 1640 supplemented with 5% of human serum, all the dilutions being prepared at 37° C. These dilutions are then added to the parasites in culture in the microplates. After addition of the test compound, the parasites are in culture in RPMI 1640 containing 5% of human serum and 1% of dimethyl sulphoxide. The parasite growth is measured by the incorporation of tritiated hypoxanthine (added 24 h after the beginning of exposure to the test compound) compared with incorporation in the absence of the test compound (taken as 100%). The IC50 values (concentration of the compound required to inhibit the parasite growth by 50%) are determined by plotting the percentage inhibition as a function of the log of the dose by means of the GraphPad Prism 4® processing software (GraphPad software, Inc., 5755 Oberlin Drive, # 110, San Diego, Calif. 92121, USA).

[2] = strain FcM29, 48 h incubation in human red blood cells, tritiated hypoxanthine incorporation

CCNCc1cccc(NC(=O)c2n[nH]c3ccc(-c4cncc5ccccc45)cc23)c1 (as salt: HCl) [Compound No. 14, N-{3-[(Ethylamino)methyl]phenyl}-5-isoquinolin-4-yl-1H-indazole-3-carboxamide dihydrochloride]
melting point: > 135 °C

O=C(Nc1ccncc1)c1n[nH]c2ccc(-c3cncc4[nH]ccc34)cc12 [Compound No. 10, N-(Pyridin-4-yl)-5-(1H-pyrrolo[2,3-c]pyridin-4-yl)-1H-indazole-3-carboxamide]
melting point: > 250 °C | IC50 [1, 2]: 130 nM

O=C(Nc1ccncc1)c1n[nH]c2ccc(-c3cncc4ccccc34)cc12 [Compound No. 3, N-(Pyridin-4-yl)-5-isoquinolin-4-yl-1H-indazole-3-carboxamide]
melting point: > 250 °C | IC50 [1, 2]: 600 nM

CCNCc1cccc(NC(=O)c2n[nH]c3ccc(-c4cncc5[nH]ccc45)cc23)c1 [compound 21, N-{3-[(ethylamino)methyl]phenyl}-5-(1H-pyrrolo[2,3-c]pyridin-4-yl)-1H-indazole-3-carboxamide]
melting point: > 250 °C | IC50 [1, 2]: 406 nM

O=C(Nc1ccncc1)c1n[nH]c2ccc(-c3ccc(Cl)nc3)cc12 [compound 12, 5-(6-chloropyridin-3-yl)-N-pyridin-4-yl-1H-indazole-3-carboxamide]
melting point: > 250 °C | IC50 [1, 2]: 800 nM

O=C(Nc1ccncc1)c1n[nH]c2ccc(-c3cn[nH]c3)cc12 [Compound No. 11, 5-(1H-Pyrazol-4-yl)-N-(pyridin-4-yl)-1H-indazole-3-carboxamide]
melting point: > 250 °C | IC50 [1, 2]: 800 nM

CCNCc1cccc(NC(=O)c2n[nH]c3ccc(-c4cncc5ccccc45)cc23)c1 [Compound No. 14, N-{3-[(Ethylamino)methyl]phenyl}-5-isoquinolin-4-yl-1H-indazole-3-carboxamide dihydrochloride]
IC50 ([1]; 48 h): 272 nM
